Like-named read-outs stand apart in the source and are kept apart here.
Experiments:
[1] = system: Staphylococcus aureus biofilms; test: Static biofilm model, viable counts; format: cell-based; conditions: for Biofilm death / reduction in biofilm biomass: methicillin 1,000 μg/ml monotherapy, combination with 100 μg/ml ALAFAC; for Minimum antibiotic concentration for bactericidal (>3 log10) activity on biofilms: 12 hours, antibiotic alone
Experimental: Static Biofilm Model. Staphylococci were grown in TSB to mid-logarithmic phase (OD600=0.5), washed, and resuspended in fresh pre-warmed medium to a density of 2×10^4 CFU in 500 μl volume, and suspensions were used to seed polystyrene 24-well plates. Bacteria were cultured at 37° C. for 12 hours, after which biofilms were washed with PBS to eliminate planktonic bacteria and were exposed to TSB with indicated concentrations of ALAFAC and/or antibiotics for 24 hours at 37° C. Biofilms were then washed in PBS, sonicated and detached by scraping the surface in the presence of 100 μL PBS followed by a rinse with 100 μL PBS. Collected cells were vortexed twice for 20 seconds at high speed and the dispersed biofilm cells were first observed by microscopy to ensure proper dispersion and then diluted in a 10-fold dilution series where 100 μl of each dilution was plated on blood agar plates to determine viable CFUs per ml after overnight growth at 37° C. Colony counts from plates carrying 20-200 colonies were used to determine the viable counts and are reported as the total number of colony-forming units per biofilm.

Staphylococcus aureus = test: MIC by broth microdilution, antibiotics with and without ALAFAC; format: cell-based; conditions: Staphylococcus aureus, antibiotic alone, read-out: MIC
Experimental: Methodology: Minimal inhibitory concentrations (MICs) were determined in 96-well microtiter plates using the microdilution method according to approved standards of the CLSI except that Todd-Hewitt medium supplemented with 0.5% yeast extract, which yields reproducible MIC results was used as the test medium for S. pneumoniae. For the remaining species Mueller-Hinton medium was used as indicated by the CLSI standard. Each well contained two-fold dilutions of antibiotic, was seeded with a final bacterial concentration of 10^5 CFU/mL, and was incubated for 18 h at 37° C. in a Synergy II microplate reader (Biotek, Winooski, Vt.) where the OD600 was recorded every 5 minutes to monitor bacterial growth. The MIC was defined as the lowest concentration of antimicrobial agent solution at which no increase in OD600 was detected.
In vitro susceptibility tests. Minimal inhibitory concentrations (MICs) were determined in 96-well microtiter plates using the microdilution method according to approved standards of the CLSI as described previously. However, rather than Mueller-Hinton broth, Tryptic soy broth (TSB) was used for susceptibility testing as it is the common media used for Staphylococcal growth, and as it has shown more consistent results for a variety of antimicrobials when tested against Staphylococci. […] A two-fold dilution series of antibiotics in triplicate and in the presence or absence of ALAFAC was prepared in 96 well microtiter plates, and each well was seeded with a final bacterial concentration of 10^5 CFU/mL, and was incubated for 24 h at 37° C. in a Synergy 2 microplate reader (Biotek, Winooski, Vt.) where the Optical Density at 600 nm (OD600) was recorded every 5 minutes to monitor bacterial growth. The MIC was defined as the lowest concentration of antimicrobial agent solution where no increase in OD600 was detected.

Compound: COc1cccc(OC)c1C(=O)N[C@@H]1C(=O)N2[C@@H]1SC(C)(C)[C@@H]2C(=O)O [Methicillin, methicillin]
- Biofilm bactericidal activity, reduction in viable bacteria ([1]; MRSA NRS 70 and MSSA 11090306 biofilms, 24 hours, ALAFAC 200 μg/mL (12 μM), methicillin 250 μg/mL (660 μM), alone or combined): failed to induce bactericidal activity
- Biofilm death / reduction in biofilm biomass ([1]; MRSA NRS70 biofilm): 0.16 log10
- Biofilm death / reduction in biofilm biomass ([1]; MSSA 11090306 biofilm): 1 log10
- Minimum antibiotic concentration for bactericidal (>3 log10) activity on biofilms ([1]; S. aureus 11090306 biofilm): >1000 μg/ml
- Minimum antibiotic concentration for bactericidal (>3 log10) activity on biofilms ([1]; S. aureus NRS70 biofilm): >1000 μg/ml
- MIC (Staphylococcus aureus; S. aureus 10307570): 16 µg/mL
- MIC (Staphylococcus aureus; S. aureus 11090306 (MSSA)): 2 µg/mL
- MIC (Staphylococcus aureus; S. aureus NRS1): > 128 µg/mL
- MIC (Staphylococcus aureus; S. aureus NRS70): 32 µg/mL
- MIC (Staphylococcus aureus; S. aureus NRS71): > 128 µg/mL
- MIC (Staphylococcus aureus; S. aureus NRS100): > 128 µg/mL
- MIC (Staphylococcus aureus; S. aureus NRS123): 32 µg/mL
- MIC (Staphylococcus aureus; S. aureus NRS384): 16 µg/mL

Reference: US9526766B2, “Potentiation of antibiotic treatment with a protein-lipid complex” (priority 2012, dated 2016)
